Assay results: patent US11584749B2, “Phosphor-tetrazine compound and use thereof” (Spark Biopharma, Inc., priority 2018, dated 2023)

How the values were obtained:
[1] = Change in emission properties (quantum yield, excitation/emission maxima, fluorescence amplification) before and after reaction with TCO; type: physicochemical; conditions: for fluorescence amplification rate (on/off): before and after reaction with TCO; for fluorescence signal amplification efficiency after the reaction with TCO: long wavelength range, diethylamino group at R1
Description: (§1) In this test, the absorption spectrum was measured with a UV-VIS spectrophotometer UV-1650PC (Shimadzu), and the emission spectrum and motion data were measured using a Cary Eclipse Fluorescence spectrophotometer (Varian Associates), and the absolute quantum yield was measured with a QE-2000 (Otsuka Electronics).
The emission spectrum was compared when the maximum fluorescence intensity was reached before and after the reaction of the compound and TCO, and changes in fluorescence of the compounds of Examples 1 to 4 and Comparative Examples 1 to 4 were observed, and the results are shown in Table 1 below.
The emission spectrum was compared when the maximum fluorescence intensity was reached before and after the reaction of the compound and TCO, and changes in fluorescence of the compounds of Examples 1 and 4 and Comparative Examples 3 to 6 were observed, and the results are shown in Table 2 below, FIGS. 3 and 4.

[2] = Second rate constant of the reaction with TCO; type: physicochemical
Description: as §1

For CC(=O)c1ccn2c3c(c(-c4ccc(-c5nnc(C)nn5)cc4)c2c1)CN(CCCNC(=O)OC(C)(C)C)C3=O [Comparative Example 1, tert-butyl (3-(7-acetyl-9-(4-(6-methyl-1,2,4,5-tetrazin-3-yl)phenyl)-3-oxo-1,3-dihydro-2H-pyrrolo[3,4-b]indolizin-2-yl)propyl)carbamate], the “λem maximum emission wavelength” value ([1]; Table 1) was 532 nm, the “λex largest excitation maxima at a given maximum emission wavelength” value (“λex largest excitation maxima” for short) ([1]; Table 1) was 416 nm and the “Φon absolute quantum yield after the reaction with TCO” value (“Φon absolute quantum yield” below) ([1]; Table 1) was 0.168. For the same compound, the “fluorescence amplification rate (on/off)” value ([1]; Table 1) was 20, the “Φoff absolute quantum yield before the reaction with TCO” value ([1]; Table 1) was 0.011 and the “K2 second rate constant value” ([2]; Table 1, measured at 20° C.) was 21 m^−1s^−1.
With CC(=O)c1ccn2c3c(c(-c4ccc(C(=O)NCc5ccc(-c6nnc(C)nn6)cc5)cc4)c2c1)CN(CCCNC(=O)OC(C)(C)C)C3=O [Comparative Example 2, tert-butyl (3-(7-acetyl-9-(4-((4-(6-methyl-1,2,4,5-tetrazin-3-yl)benzyl)carbamoyl)phenyl)-3-oxo-1,3-dihydro-2H-pyrrolo[3,4-b]indolizin-2-yl)propyl)carbamate] the “λem maximum emission wavelength” value ([1]; Table 1) was 522 nm, the “λex largest excitation maxima” value ([1]; Table 1) was 401 nm and the “Φon absolute quantum yield” value ([1]; Table 1) was 0.583. The “fluorescence amplification rate (on/off)” value ([1]; Table 1) was 14, the “Φoff absolute quantum yield before the reaction with TCO” value ([1]; Table 1) was 0.042 and the “K2 second rate constant value” ([2]; Table 1, measured at 20° C.) was 15 m^−1s^−1.
In the case of Cc1nnc(-c2ccc(CNC(=O)c3ccn4c5c(c(-c6ccccc6)c4c3)CN(CCCNC(=O)OC(C)(C)C)C5=O)cc2)nn1 [Comparative Example 3, tert-butyl (3-(7-((4-(6-methyl-1,2,4,5-tetrazin-3-yl)benzyl)carbamoyl)-3-oxo-9-phenyl-1,3-dihydro-2H-pyrrolo[3,4-b]indolizin-2-yl)propyl)carbamate], the “λem maximum emission wavelength” value ([1]; Table 1) is reported as 493 nm, the “λex largest excitation maxima” value ([1]; Table 1) is reported as 375 nm and the “Φon absolute quantum yield” value ([1]; Table 1) is reported as 0.616. For the same compound, the “fluorescence amplification rate (on/off)” value ([1]; Table 1) was 67, the “Φoff absolute quantum yield before the reaction with TCO” value ([1]; Table 1) was 0.012 and the “λem maximum emission wavelength” value ([1]; Table 2) was 493 nm. The “λex largest excitation maxima” value ([1]; Table 2) was 375 nm, the “Φon absolute quantum yield” value ([1]; Table 2) was 0.616 and the “fluorescence amplification rate (on/off)” value ([1]; Table 2) was 67. The “Φoff absolute quantum yield before the reaction with TCO” value ([1]; Table 2) was 0.012, the “K2 second rate constant value” ([2]; Table 1, measured at 20° C.) was 15 m^−1s^−1 and the “K2 second rate constant value” ([2]; Table 2, measured at 20° C.) was 15 m^−1s^−1.
In the case of CC(=O)c1ccn2c3c(c(-c4ccccc4)c2c1)CN(CCCNC(=O)CCC(=O)NCc1ccc(-c2nnc(C)nn2)cc1)C3=O [Comparative Example 4, N^1-(3-(7-acetyl-3-oxo-9-phenyl-1,3-dihydro-2H-pyrrolo[3,4-b]indolizin-2-yl)propyl)-N^4-(4-(6-methyl-1,2,4,5-tetrazin-3-yl)benzyl)succinimide], the “λem maximum emission wavelength” value ([1]; Table 1) is reported as 530 nm, the “λex largest excitation maxima” value ([1]; Table 1) is reported as 401 nm and the “Φon absolute quantum yield” value ([1]; Table 1) is reported as 0.325. For the same compound, the “fluorescence amplification rate (on/off)” value ([1]; Table 1) was 24, the “Φoff absolute quantum yield before the reaction with TCO” value ([1]; Table 1) was 0.017 and the “λem maximum emission wavelength” value ([1]; Table 2) was 530 nm. The “λex largest excitation maxima” value ([1]; Table 2) was 401 nm, the “Φon absolute quantum yield” value ([1]; Table 2) was 0.325 and the “fluorescence amplification rate (on/off)” value ([1]; Table 2) was 24. The “Φoff absolute quantum yield before the reaction with TCO” value ([1]; Table 2) was 0.017, the “K2 second rate constant value” ([2]; Table 1, measured at 20° C.) was 8.5 m^−1s^−1 and the “K2 second rate constant value” ([2]; Table 2, measured at 20° C.) was 8.5 m^−1s^−1.
With CCN(CC)c1ccc(-c2c3c(n4ccc(C(=O)NCc5ccc(-c6nnc(C)nn6)cc5)cc24)C(=O)N(CCCNC(=O)OC(C)(C)C)C3)cc1 [Comparative Example 5, tert-butyl (3-(9-(4-(diethylamino)phenyl)-7-((4-(6-methyl-1,2,4,5-tetrazin-3-yl)benzyl)carbamoyl)-3-oxo-1,3-dihydro-2H-pyrrolo[3,4-b]indolizin-2-yl)propyl)carbamate] the “λem maximum emission wavelength” value ([1]; Table 2) was 608 nm, the “λex largest excitation maxima” value ([1]; Table 2) was 418 nm and the “Φon absolute quantum yield” value ([1]; Table 2) was 0.016. For the same compound, the “fluorescence amplification rate (on/off)” value ([1]; Table 2) was 30, the “Φoff absolute quantum yield before the reaction with TCO” value ([1]; Table 2) was 0.005 and the “fluorescence signal amplification efficiency after the reaction with TCO” value ([1]; Table 2) was “significantly reduced”. For the same compound, the “K2 second rate constant value” ([2]; Table 2, measured at 20° C.) was 15 m^−1s^−1.
For CCN(CC)c1ccc(-c2c3c(n4ccc(C(C)=O)cc24)C(=O)N(CCCNC(=O)CCC(=O)NCc2ccc(-c4nnc(C)nn4)cc2)C3)cc1 [Comparative Example 6, N^1-(3-(7-acetyl-9-(4-(diethylamino)phenyl)-3-oxo-1,3-dihydro-2H-pyrrolo[3,4-b]indolizin-2-yl)propyl)-N^4-(4-(6-methyl-1,2,4,5-tetrazin-3-yl)benzyl)succinimide], the “λem maximum emission wavelength” value ([1]; Table 2) was 625 nm, the “λex largest excitation maxima” value ([1]; Table 2) was 438 nm and the “Φon absolute quantum yield” value ([1]; Table 2) was 0.028. The “fluorescence amplification rate (on/off)” value ([1]; Table 2) was 3, the “Φoff absolute quantum yield before the reaction with TCO” value ([1]; Table 2) was 0.013 and the “fluorescence signal amplification efficiency after the reaction with TCO” value ([1]; Table 2) was “significantly reduced”. The “K2 second rate constant value” ([2]; Table 2, measured at 20° C.) was 1.2 m^−1s^−1.
With Cc1nnc(-c2ccn3c4c(c(-c5ccccc5)c3c2)CN(CCCNC(=O)OC(C)(C)C)C4=O)nn1 [Example 1, tert-butyl (3-(7-(6-methyl-1,2,4,5-tetrazin-3-yl)-3-oxo-9-phenyl-1,3-dihydro-2H-pyrrolo[3,4-b]indolizin-2-yl)propyl)carbamate] the “λem maximum emission wavelength” value ([1]; Table 1) was 484 nm, the “λex largest excitation maxima” value ([1]; Table 1) was 375 nm and the “Φon absolute quantum yield” value ([1]; Table 1) was 0.683. The “fluorescence amplification rate (on/off)” value ([1]; Table 1) was >1,000, the “Φoff absolute quantum yield before the reaction with TCO” value ([1]; Table 1) was 0.002 and the “λem maximum emission wavelength” value ([1]; Table 2) was 484 nm. The “λex largest excitation maxima” value ([1]; Table 2) was 375 nm, the “Φon absolute quantum yield” value ([1]; Table 2) was 0.683 and the “fluorescence amplification rate (on/off)” value ([1]; Table 2) was >1,000. The “Φoff absolute quantum yield before the reaction with TCO” value ([1]; Table 2) was 0.002, the “fluorescence signal amplification efficiency after the reaction with TCO” value ([1]; Table 2) was “excellent” and the “K2 second rate constant value” ([2]; Table 1, measured at 20° C.) was 24 m^−1s^−1. For the same compound, the “K2 second rate constant value” ([2]; Table 2, measured at 20° C.) was 24 m^−1s^−1.
With COc1ccc(-c2c3c(n4ccc(-c5nnc(C)nn5)cc24)C(=O)N(CCCNC(=O)OC(C)(C)C)C3)cc1 [Example 2, tert-butyl (3-(9-(4-methoxyphenyl)-7-(6-methyl-1,2,4,5-tetrazin-3-yl)-3-oxo-1,3-dihydro-2H-pyrrolo[3,4-b]indolizin-2-yl)propyl)carbamate] the “λem maximum emission wavelength” value ([1]; Table 1) was 505 nm, the “λex largest excitation maxima” value ([1]; Table 1) was 383 nm and the “Φon absolute quantum yield” value ([1]; Table 1) was 0.485. The “fluorescence amplification rate (on/off)” value ([1]; Table 1) was >1,000, the “Φoff absolute quantum yield before the reaction with TCO” value ([1]; Table 1) was 0.001 and the “K2 second rate constant value” ([2]; Table 1, measured at 20° C.) was 23 m^−1s^−1.
For Cc1nnc(-c2ccn3c4c(c(-c5ccc(N)cc5)c3c2)CN(CCCNC(=O)OC(C)(C)C)C4=O)nn1 [Example 3, tert-butyl (3-(9-(4-aminophenyl)-7-(6-methyl-1,2,4,5-tetrazin-3-yl)-3-oxo-1,3-dihydro-2H-pyrrolo[3,4-b]indolizin-2-yl)propyl)carbamate], the “λem maximum emission wavelength” value ([1]; Table 1) was 562 nm, the “λex largest excitation maxima” value ([1]; Table 1) was 390 nm and the “Φon absolute quantum yield” value ([1]; Table 1) was 0.064. For the same compound, the “fluorescence amplification rate (on/off)” value ([1]; Table 1) was over 600, the “Φoff absolute quantum yield before the reaction with TCO” value ([1]; Table 1) was 0.002 and the “K2 second rate constant value” ([2]; Table 1, measured at 20° C.) was 22 m^−1s^−1.
In the case of CCN(CC)c1ccc(-c2c3c(n4ccc(-c5nnc(C)nn5)cc24)C(=O)N(CCCNC(=O)OC(C)(C)C)C3)cc1 [Example 4, tert-butyl (3-(9-(4-(diethylamino)phenyl)-7-(6-methyl-1,2,4,5-tetrazin-3-yl)-3-oxo-1,3-dihydro-2H-pyrrolo[3,4-b]indolizin-2-yl)propyl)carbamate], the “λem maximum emission wavelength” value ([1]; Table 1) is reported as 581 nm, the “λex largest excitation maxima” value ([1]; Table 1) is reported as 401 nm and the “Φon absolute quantum yield” value ([1]; Table 1) is reported as 0.045. The “fluorescence amplification rate (on/off)” value ([1]; Table 1) was over 600, the “Φoff absolute quantum yield before the reaction with TCO” value ([1]; Table 1) was 0.001 and the “λem maximum emission wavelength” value ([1]; Table 2) was 581 nm. For the same compound, the “λex largest excitation maxima” value ([1]; Table 2) was 401 nm, the “Φon absolute quantum yield” value ([1]; Table 2) was 0.045 and the “fluorescence amplification rate (on/off)” value ([1]; Table 2) was over 600. For the same compound, the “Φoff absolute quantum yield before the reaction with TCO” value ([1]; Table 2) was 0.001, the “fluorescence signal amplification efficiency after the reaction with TCO” value ([1]; Table 2) was “excellent” and the “K2 second rate constant value” ([2]; Table 1, measured at 20° C.) was 22 m^−1s^−1. For the same compound, the “K2 second rate constant value” ([2]; Table 2, measured at 20° C.) was 22 m^−1s^−1.
